≈ marks a conversion by molar mass, not a printed value.
Legend:
[1] = test system: Streptococcus pyogenes; experiment: In vitro antimicrobial activity against Streptococcus pyogenes C203; assay type: functional
[2] = test system: Streptococcus pyogenes; experiment: In vivo effective dose against experimental infections in rodent caused by Streptococcus pyogenes C203 when administered orally; assay type: functional; conditions: po
[3] = test system: Enterococcus faecium; experiment: In vitro antimicrobial activity against Streptococcus faecium X66; assay type: functional, streptococcus fae-cium
[4] = test system: Staphylococcus aureus; experiment: In vitro antimicrobial activity against Staphylococcus aureus X1; assay type: functional
[5] = test system: Staphylococcus epidermidis; experiment: In vitro antimicrobial activity against Staphylococcus epidermidis EPI1; assay type: functional
[6] = test system: Streptococcus pneumoniae; experiment: In vitro antimicrobial activity against Streptococcus pneumoniae; assay type: functional
[7] = test system: Streptococcus pyogenes; experiment: In vivo effective dose against experimental infections in rodent caused by Streptococcus pyogenes C203 when administered subcutaneously; assay type: functional; conditions: sc
[8] = test system: Haemophilus influenzae; experiment: In vitro antimicrobial activity against Haemophilus influenzae.; assay type: functional
[9] = test system: Staphylococcus epidermidis; experiment: In vitro antimicrobial activity against aerobic bacteria Streptococcus epi 270; assay type: functional
[10] = test system: Streptococcus; experiment: In vitro antimicrobial activity against aerobic bacteria Streptococcus G Kruder; assay type: functional; conditions: Streptococcus; read-out: MIC
[11] = test system: Streptococcus; experiment: In vitro antimicrobial activity against aerobic bacteria Streptococcus D 9960; assay type: functional
[12] = test system: Streptococcus; experiment: In vitro antimicrobial activity against aerobic bacteria Streptococcus D 2041; assay type: functional
[13] = test system: Streptococcus; experiment: In vitro antimicrobial activity against aerobic bacteria Streptococcus D 8043; assay type: functional
[14] = test system: Staphylococcus aureus; experiment: In vitro antimicrobial activity against aerobic bacteria Staphylococcus aureus V41; assay type: functional
[15] = test system: Anaerococcus prevotii; experiment: In vitro antimicrobial activity against anaerobic bacteria peptococcus prevoti 1281; assay type: functional
[16] = test system: Staphylococcus epidermidis; experiment: In vitro antimicrobial activity against aerobic bacteria Streptococcus epi 222; assay type: functional
[17] = test system: Bacteroides fragilis; experiment: In vitro antimicrobial activity against anaerobic bacteria bacteroides fragilis 1936B,; assay type: functional
[18] = test system: Streptococcus sanguinis; experiment: In vitro antimicrobial activity against aerobic bacteria Streptococcus sanguis MX132; assay type: functional
[19] = test system: Peptoniphilus asaccharolyticus; experiment: In vitro antimicrobial activity against anaerobic bacteria peptococcus asaccharolyticus 1302; assay type: functional
[20] = test system: Collinsella aerofaciens; experiment: In vitro antimicrobial activity against anaerobic bacteria eubacterium aerofaciens 1235; assay type: functional
[21] = test system: Streptococcus pneumoniae; experiment: In vitro antimicrobial activity against aerobic bacteria Streptococcus pneumoniae B1-438; assay type: functional, streptococcus pneum
[22] = test system: Clostridium perfringens; experiment: In vitro antimicrobial activity against anaerobic bacteria clostridium perfringens 81,; assay type: functional
[23] = test system: Staphylococcus aureus; experiment: In vivo effective dose against experimental infections in mice Staphylococcus aureus X1 when administered sc; assay type: functional
[24] = test system: Streptococcus pyogenes; experiment: In vivo effective dose against experimental infections in rodent caused by Streptococcus pyogenes C203 when administered sc; assay type: functional
[25] = test system: Streptococcus; experiment: In vitro antimicrobial activity against aerobic bacteria Streptococcus C 24; assay type: functional
[26] = test system: Clostridium septicum; experiment: In vitro antimicrobial activity against anaerobic bacteria clostridium septicum 1128; assay type: functional
[27] = test system: Eikenella corrodens; experiment: In vitro antimicrobial activity against anaerobic bacteria bacteroides corrodens 1874; assay type: functional
[28] = test system: Fusobacterium; experiment: In vitro antimicrobial activity against anaerobic bacteria fusobacterium symbiosum 1470; assay type: functional
[29] = test system: Streptococcus pneumoniae; experiment: In vivo effective dose against experimental infections in mice Strep. pneumoniae park when administered orally; assay type: functional; conditions: po
[30] = test system: Staphylococcus aureus; experiment: In vitro antimicrobial activity against aerobic bacteria Staphylococcus aureus X400; assay type: functional
[31] = test system: Streptococcus; experiment: In vitro antimicrobial activity against aerobic bacteria Streptococcus B 8; assay type: functional
[32] = test system: Staphylococcus aureus; experiment: In vitro antimicrobial activity against aerobic bacteria Staphylococcus aureus 513E; assay type: functional
[33] = In vitro antimicrobial activity against anaerobic bacteria peptostreptococcus intermedius 1264; assay type: functional
[34] = test system: Clostridioides difficile; experiment: In vitro antimicrobial activity against anaerobic bacteria Clostridium difficile 2994; assay type: functional
[35] = test system: Bacteroides fragilis; experiment: In vitro antimicrobial activity against anaerobic bacteria bacteroides fragilis 111; assay type: functional
[36] = test system: Staphylococcus aureus; experiment: In vitro antimicrobial activity against aerobic bacteria Staphylococcus aureus V140,; assay type: functional
[37] = test system: Streptococcus; experiment: In vitro antimicrobial activity against aerobic bacteria Streptococcus B 14; assay type: functional
[38] = test system: Phocaeicola vulgatus; experiment: In vitro antimicrobial activity against anaerobic bacteria bacteroides vulgatus 1211; assay type: functional
[39] = test system: Streptococcus viridans; experiment: In vitro antimicrobial activity against aerobic bacteria Streptococcus viridans 9943; assay type: functional
[40] = test system: Staphylococcus aureus; experiment: In vivo effective dose against experimental infections in mice Staphylococcus aureus X1 when administered orally; assay type: functional; conditions: po
[41] = test system: Prevotella melaninogenica; experiment: In vitro antimicrobial activity against anaerobic bacteria bacteroides melaninogenicus 2736; assay type: functional
[42] = test system: Staphylococcus aureus; experiment: In vitro antimicrobial activity against aerobic bacteria Staphylococcus aureus V135; assay type: functional
[43] = test system: Bacteroides fragilis; experiment: In vitro antimicrobial activity against anaerobic bacteria bacteroides fragilis 1877; assay type: functional
[44] = test system: Bacteroides thetaiotaomicron; experiment: In vitro antimicrobial activity against anaerobic bacteria bacteroides thetaiotaomicron 1438; assay type: functional
[45] = test system: Peptostreptococcus anaerobius; experiment: In vitro antimicrobial activity against anaerobic bacteria eubacterium peptostreptococcus anaerobius 1428,; assay type: functional
[46] = test system: Streptococcus; experiment: In vitro antimicrobial activity against aerobic bacteria Streptococcus B 5; assay type: functional
[47] = test system: Cutibacterium acnes; experiment: In vitro antimicrobial activity against anaerobic bacteria propionibacterium acnes 79; assay type: functional
[48] = test system: Prevotella melaninogenica; experiment: In vitro antimicrobial activity against anaerobic bacteria bacteroides melaninogenicus 1856,; assay type: functional
[49] = test system: Haemophilus influenzae; experiment: In vitro antimicrobial activity against aerobic bacteria Haemophilus influenzae 76; assay type: functional
[50] = test system: Fusobacterium necrophorum; experiment: In vitro antimicrobial activity against anaerobic bacteria usobacterium necrophorum 6054A; assay type: functional
[51] = test system: Streptococcus pneumoniae; experiment: In vivo effective dose against experimental infections in mice Strep. pneumoniae park when administered sc; assay type: functional
[52] = test system: Chlamydia trachomatis; experiment: In vitro antimicrobial activity against chlamydia trachomatis.; assay type: functional
[53] = test system: Haemophilus influenzae; experiment: In vitro antimicrobial activity against aerobic bacteria Haemophilus influenzae MX366; assay type: functional

Molecule `CC[C@H]1OC(=O)C[C@@H](O)[C@H](C)[C@@H](O[C@@H]2O[C@H](C)[C@@H](O[C@H]3C[C@@](C)(O)[C@@H](O)[C@H](C)O3)[C@H](N(C)C)[C@H]2O)[C@@H](CCO)C[C@@H](C)C(=O)/C=C/C(C)=C/[C@@H]1CO[C@@H]1O[C@H](C)[C@@H](O)[C@@H](O)[C@H]1OC` has an MIC [1] of 4 µg/mL (≈ 4.42 µM), an ED50 [2] greater than 100 mg/kg and an MIC [3] of 128 µg/mL (≈ 142 µM). The MIC [4] was 16 µg/mL (≈ 17.7 µM), the MIC [5] was 4 µg/mL (≈ 4.42 µM) and the MIC [6] was 32 µg/mL (≈ 35.4 µM). The ED50 [7] was greater than 10 mg/kg and the MIC [8] was greater than 128 µg/mL.

`CC[C@H]1OC(=O)C[C@@H](O)[C@H](C)[C@@H](O[C@@H]2O[C@H](C)[C@@H](O)[C@H](N(C)C)[C@H]2O)[C@@H](CCN=[N+]=[N-])C[C@@H](C)C(=O)/C=C/C(C)=C/[C@@H]1CO[C@@H]1O[C@H](C)[C@@H](O)[C@@H](OC)[C@H]1OC` gave an MIC [9] greater than 128 µg/mL, an MIC [10] of 64 µg/mL (≈ 80.1 µM) and an MIC [11] of 8 µg/mL (≈ 10 µM). It also gave an MIC [12] of 16 µg/mL (≈ 20 µM), an MIC [13] of 4 µg/mL (≈ 5.01 µM) and an MIC [1] of 0.25 µg/mL (≈ 0.313 µM). It also gave an MIC [14] of 0.12 µg/mL (≈ 0.15 µM), an MIC [15] of 2 µg/mL (≈ 2.5 µM) and an MIC [16] of 0.25 µg/mL (≈ 0.313 µM). The MIC [17] was 2 µg/mL (≈ 2.5 µM), the MIC [18] was 1 µg/mL (≈ 1.25 µM) and the MIC [19] was 1 µg/mL (≈ 1.25 µM). The MIC [3] was 4 µg/mL (≈ 5.01 µM), the MIC [20] was 2 µg/mL (≈ 2.5 µM) and the MIC [4] was 0.12 µg/mL (≈ 0.15 µM). The MIC [5] was 0.12 µg/mL (≈ 0.15 µM), the MIC [21] was greater than 128 µg/mL and the MIC [22] was less than 0.5 µg/mL. It also gave an MIC [6] of 2 µg/mL (≈ 2.5 µM), an ED50 [23] of 2.8 mg/kg and an ED50 [24] of 3.8 mg/kg. For the same molecule, the MIC [25] was 0.5 µg/mL (≈ 0.626 µM), the MIC [26] was less than 0.5 µg/mL and the MIC [27] was 2 µg/mL (≈ 2.5 µM). For the same molecule, the MIC [28] was 2 µg/mL (≈ 2.5 µM), the ED50 [29] was greater than 50 mg/kg and the MIC [30] was 0.25 µg/mL (≈ 0.313 µM). For the same molecule, the MIC [31] was 8 µg/mL (≈ 10 µM), the MIC [32] was 0.12 µg/mL (≈ 0.15 µM) and the MIC [33] was 2 µg/mL (≈ 2.5 µM). For the same molecule, the MIC [8] was 16 µg/mL (≈ 20 µM), the MIC [34] was less than 0.5 µg/mL and the MIC [35] was 2 µg/mL (≈ 2.5 µM). For the same molecule, the MIC [36] was 0.25 µg/mL (≈ 0.313 µM), the MIC [37] was 16 µg/mL (≈ 20 µM) and the MIC [38] was 2 µg/mL (≈ 2.5 µM). The MIC [39] was greater than 128 µg/mL, the ED50 [40] was 18 mg/kg and the MIC [41] was 2 µg/mL (≈ 2.5 µM). The MIC [42] was 0.25 µg/mL (≈ 0.313 µM), the MIC [43] was 2 µg/mL (≈ 2.5 µM) and the MIC [44] was 2 µg/mL (≈ 2.5 µM). For the same molecule, the MIC [45] was less than 0.5 µg/mL, the MIC [46] was 8 µg/mL (≈ 10 µM) and the MIC [47] was 16 µg/mL (≈ 20 µM). For the same molecule, the MIC [48] was 1 µg/mL (≈ 1.25 µM), the MIC [49] was 4 µg/mL (≈ 5.01 µM) and the MIC [50] was 16 µg/mL (≈ 20 µM). It also gave an ED50 [51] greater than 20 mg/kg, an MIC [52] of 0.5 µg/mL (≈ 0.626 µM) and an MIC [53] of 32 µg/mL (≈ 40.1 µM).

Source: ChEMBL document CHEMBL1124186, “Synthesis and evaluation of tylosin-related macrolides modified at the aldehyde function: a new series of orally effective antibiotics” (1988)
